Reference: paper PMC4517520 (Drug Design, Development and Therapy, 2015)
Read-outs that look alike come from different tables or passages of the source.

Key:
EGFR = details: read-out: Potency [IC50], cited from earlier work
HER2 = details: read-out: Potency [IC50]; PDB 3RCD; reference or ChEMBL geometric mean; cited from earlier work
[1] = target: human EGFR cytoplasmic domain, dual T790M/L858R mutations (Homo sapiens, UniProt P00533, L858R/T790M); format: biochemical; details: in vitro
A431 (wild-type) cells = assay: Cell proliferation assay; format: cell-based; details: Homo sapiens, A-431, 24 h, read-out: Cellular IC50 A431 (wild-type)
[2] = test system: H1975 (T790M/L858R) cells; assay: Cell proliferation assay; format: cell-based; details: Homo sapiens, NCI-H1975, 24 h, read-out: Cellular IC50 H1975 (T790M/L858R)
MCF-7 cells = assay: Cell proliferation assay; format: cell-based; details: Homo sapiens, MCF7, 24 h, read-out: Cellular IC50 MCF-7
HER4 = details: read-out: Potency [IC50]; PDB 3BBT; reference or ChEMBL geometric mean; cited from earlier work

Sequence of human EGFR cytoplasmic domain, dual T790M/L858R mutations (P00533 669-1210 T790M/L858R): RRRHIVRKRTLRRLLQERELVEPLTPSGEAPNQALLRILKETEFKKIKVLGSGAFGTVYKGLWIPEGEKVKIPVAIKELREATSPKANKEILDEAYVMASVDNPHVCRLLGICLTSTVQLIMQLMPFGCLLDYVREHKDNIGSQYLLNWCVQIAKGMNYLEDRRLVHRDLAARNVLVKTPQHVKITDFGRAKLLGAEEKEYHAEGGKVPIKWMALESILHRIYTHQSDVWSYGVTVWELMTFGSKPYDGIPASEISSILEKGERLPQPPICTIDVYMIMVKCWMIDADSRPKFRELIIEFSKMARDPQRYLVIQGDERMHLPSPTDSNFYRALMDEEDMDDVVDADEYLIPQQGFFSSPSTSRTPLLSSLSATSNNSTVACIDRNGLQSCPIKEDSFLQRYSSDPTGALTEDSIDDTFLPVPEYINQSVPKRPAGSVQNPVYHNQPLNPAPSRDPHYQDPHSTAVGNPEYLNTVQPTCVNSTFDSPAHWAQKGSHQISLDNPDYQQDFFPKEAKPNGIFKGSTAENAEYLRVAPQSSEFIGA

In the case of CN(C)C/C=C/C(=O)Nc1cc2c(Nc3ccc(F)c(Cl)c3)ncnc2cc1O[C@H]1CCOC1 [0WM], the IC50 (EGFR; PDB 4G5J, reference or ChEMBL geometric mean) is listed as 0.0005 µM.
For COc1cc2ncnc(Nc3ccc(F)c(Cl)c3)c2cc1NC(=O)/C=C/CN1CCCCC1 [1C9], the IC50 (EGFR; PDB 4I23, reference or ChEMBL geometric mean) is listed as 0.00812 µM.
For CC(C)(O)CC(=O)NCCn1ccc2ncnc(Nc3ccc(Oc4cccc(C(F)(F)F)c4)c(Cl)c3)c21 [03P], the IC50 (EGFR; PDB 3POZ, reference or ChEMBL geometric mean) is given as […] and the IC50 (HER2) is given as 0.017 µM.
For CC(C)(O)CC(=O)NCCc1ccc2ncnc(Nc3ccc(Oc4cccc(C(F)(F)F)c4)c(Cl)c3)c2c1 [A-10, N-(2-(4-((3-Chloro-4-(3-(trifluoromethyl)phenoxy)phenyl)amino)quinazolin-6-yl)ethyl)-3-hydroxy-3-methylbutanamide], the “more potency against EGFR T790M than the two control molecules erlotinib and gefitinib” value [1] was “at least 30 fold”, the IC50 (A431 (wild-type) cells) was 0.041 µM and the IC50 [2] was 0.127 µM. It also gave an IC50 (MCF-7 cells) of 0.094 µM.
In the case of CCN1CCN(Cc2ccc(-c3cc4c(N[C@H](C)c5ccccc5)ncnc4[nH]3)cc2)CC1 [AEE], the IC50 (EGFR; PDB 2J6M, reference or ChEMBL geometric mean) is listed as 0.0109 µM.
For C#Cc1cccc(Nc2ncnc3cc(OCCOC)c(OCCOC)cc23)c1 [Erlotinib, erlotinib], the IC50 (A431 (wild-type) cells) was 0.062 µM and the IC50 (MCF-7 cells) was > 1 µM.
For COc1cc2ncnc(Nc3ccc(F)c(Cl)c3)c2cc1OCCCN1CCOCC1 [IRE], the IC50 (EGFR; PDB 2ITY, reference or ChEMBL geometric mean) is listed as 0.0535 µM.
For CN(C)CCC(=O)Nc1cccc(-c2c(-c3ccccc3)oc3ncnc(N[C@H](CO)c4ccccc4)c23)c1 [KJ8], the IC50 (EGFR; PDB 4JQ8, reference or ChEMBL geometric mean) is listed as 0.008 µM.
For OC[C@@H](Nc1ncnc2oc(-c3ccccc3)c(-c3ccccc3)c12)c1ccccc1 [KJQ], the IC50 (EGFR; PDB 4JQ7, reference or ChEMBL geometric mean) is given as 0.393 µM.
For CN(C)CCCC(=O)Nc1cccc(-c2c(-c3ccccc3)oc3ncnc(N[C@H](CO)c4ccccc4)c23)c1 [KJV], the IC50 (EGFR; PDB 4JRV, reference or ChEMBL geometric mean) is listed as 0.029 µM.
